Reference: PMC6934184, “Selective DNA-PKcs inhibition extends the therapeutic index of localized radiotherapy and chemotherapy” (The Journal of Clinical Investigation, 2019)

Biological target: T1, EPHB3 (Homo sapiens, UniProt P54753)
T1 construct: purchased Thermo Fisher Scientific (Life Technologies) SelectScreen
Test: SelectScreen Z'LYTE
Assay type: biochemical
How it was run: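 NU5455 was profiled across the SelectScreen Broad panel of kinase activity and binding assays. Z'LYTE reactions such as CSF1R ran at apparent Km ATP, while the Adapta CAMK1 assay used ATP listed as 10. Values are given as percent.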

T1 sequence (P54753 34-998): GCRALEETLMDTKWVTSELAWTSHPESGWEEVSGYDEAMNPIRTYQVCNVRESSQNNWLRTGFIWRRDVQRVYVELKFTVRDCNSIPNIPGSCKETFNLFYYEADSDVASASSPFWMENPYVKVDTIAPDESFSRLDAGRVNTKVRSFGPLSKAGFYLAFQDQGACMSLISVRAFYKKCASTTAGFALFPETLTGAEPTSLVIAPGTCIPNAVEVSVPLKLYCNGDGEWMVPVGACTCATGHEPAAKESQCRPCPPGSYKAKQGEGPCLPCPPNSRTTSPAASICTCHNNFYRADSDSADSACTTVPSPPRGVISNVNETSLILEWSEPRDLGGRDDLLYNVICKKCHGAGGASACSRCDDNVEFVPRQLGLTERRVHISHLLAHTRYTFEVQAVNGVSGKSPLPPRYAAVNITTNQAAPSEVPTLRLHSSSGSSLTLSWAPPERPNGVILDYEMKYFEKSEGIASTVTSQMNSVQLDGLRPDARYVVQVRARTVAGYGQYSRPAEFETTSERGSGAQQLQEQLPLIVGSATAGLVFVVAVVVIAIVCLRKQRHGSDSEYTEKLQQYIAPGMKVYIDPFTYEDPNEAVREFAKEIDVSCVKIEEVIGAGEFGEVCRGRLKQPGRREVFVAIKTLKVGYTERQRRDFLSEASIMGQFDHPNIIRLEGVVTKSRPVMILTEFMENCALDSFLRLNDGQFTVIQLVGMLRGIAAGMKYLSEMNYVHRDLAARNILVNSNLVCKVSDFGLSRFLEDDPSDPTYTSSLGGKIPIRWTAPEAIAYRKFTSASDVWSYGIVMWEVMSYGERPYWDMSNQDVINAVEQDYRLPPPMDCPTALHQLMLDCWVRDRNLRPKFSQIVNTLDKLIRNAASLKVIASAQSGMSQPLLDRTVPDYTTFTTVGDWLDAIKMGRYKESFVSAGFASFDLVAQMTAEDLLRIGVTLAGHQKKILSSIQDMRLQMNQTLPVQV

In the case of `CN(C(=O)CN1CCOCC1)c1ccc2sc3c(-c4cccc5c(=O)cc(N6CC7CCC(C6)O7)oc45)cccc3c2c1` [NU5455], the inhibition at 1 µM is reported as 1.1%.
